The numbers were not newly measured in patent US9951025B2, “Halogenopyrazoles as inhibitors of thrombin” (VERSEON CORPORATION, priority 2013, dated 2018), which cites them from elsewhere.

For data set [1] the following is noted: intrathecal, cited from earlier work.
The conditions of data set [2]: in vivo; cited from earlier work.
The subject of data set [3] is lung metastases. To be noted: administered prior to cancer cell inoculation; cited from earlier work.

With hirudin, the pain responses entry in data set [1] (for 7 days) is “curbed”. The “development of neuropathic pain” value in data set [1] is listed as “prevented”. For the same substance, the disease severity entry in data set [2] was “dramatic improvement”. In addition, in data set [3], the “number of lung metastases” value was “dramatically reduced”.
